Reference: patent publication US11427869B2, “T cell balance gene expression, compositions of matters and methods of use thereof” (THE BROAD INSTITUTE, INC., priority 2015, dated 2022)

What was measured:
Rorγt = molecular target: T1, Rorγt (Mus musculus, UniProt P51450); test: Dual luciferase reporter assay of Rorγt transcriptional activity in EL4 cells; type: cell-based; settings: EL4 cells, CD5L-RV 100 ng; ligand 5, 0.5 or 0.05 uM
T1 construct: expressed in transfected cells; host or cells: EL4 cells stably transfected with Rorγt vector
T1 sequence (P51450 1-495 isoform P51450-2): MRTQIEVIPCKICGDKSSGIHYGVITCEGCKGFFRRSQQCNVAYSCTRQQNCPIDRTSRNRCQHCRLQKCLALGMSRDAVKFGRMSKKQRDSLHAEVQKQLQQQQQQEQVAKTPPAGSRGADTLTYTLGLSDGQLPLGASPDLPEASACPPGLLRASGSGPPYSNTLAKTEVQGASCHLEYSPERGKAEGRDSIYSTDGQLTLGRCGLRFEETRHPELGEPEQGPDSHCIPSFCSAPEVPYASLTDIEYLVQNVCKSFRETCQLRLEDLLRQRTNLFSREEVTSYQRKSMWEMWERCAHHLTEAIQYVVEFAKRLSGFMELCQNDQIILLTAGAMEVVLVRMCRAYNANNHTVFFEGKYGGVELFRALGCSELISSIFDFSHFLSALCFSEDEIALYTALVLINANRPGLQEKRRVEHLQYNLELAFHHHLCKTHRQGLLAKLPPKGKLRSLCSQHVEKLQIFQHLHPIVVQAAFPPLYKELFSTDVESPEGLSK
Description: Cells and supernatant were harvested at 96 hours and subjected to MS/LC. Three independent mouse experiments were performed. […] All ChIP and luciferase assay are representative of at least 3 independent experiments.
Three independent experiments were performed.

Th17 cells [1] = test: qPCR of gene expression (cyp51, sc4mol, pathogenicity signature) in Th17 cells with exogenous fatty acid; type: cell-based, mouse
WT Th17 cells = test: Nanostring nCounter Th17 codeset (312 genes), SFA- or control-treated WT Th17 cells; type: cell-based, mouse; settings: WT Th17 cells + SFA
Description: Applicants studied the contribution of lipid saturation to Th17 cell pathogenicity. […] Applicants analyzed the expression of a 312 gene signature of Th17 cell differentiation and function (Yosef et al., 2013) in SFA- or control-treated WT Th17 cells and in PUFA- or control-treated CD5L−/− Th17 cells differentiated with TGF-81+IL-6.
T cell differentiation culture. Naïve CD4+CD44−CD62L+CD25− T cells or Effector memory CD4+CD44+CD62L− were sorted using BD FACSAria sorter and activated with plate-bound anti-CD3 and anti-CD28 antibodies (both at 2 μg/ml) in the presence of cytokines at a concentration of 2.5×10^5 cells/ml. For Th17 differentiation: 2 ng/ml of rhTGFβ1, 2 ng/ml of rhTGFβ3, 25 ng/ml rmIL-6, 20 ng/ml rmIL-18 (all from Miltenyi Biotec) and 20 ng/ml rmIL-23 (R & D systems) were used at various combinations as specified in figures. For Th1 differentiation, 20 ng/ml rmIL-12 (R & D systems); for Th2 differentiation 20 ng/ml rmIL-4 (Miltenyi Biotec); for iTreg differentiation, 2.5 ng/ml of rhTGFβ1 were used (Miltenyi Biotec). For differentiation experiments, cells were harvested at 48 hours. For restimulation experiments, cells were differentiated for 48 hours and resuspended in fresh media with no additional cytokines for 48-72 hours. Cells were re-stimulated with PMA/ionomycin for four hours before analysis for cytokines by intracellular cytokine staining. For experiments with exogenous fatty acid, fatty acids were purchased and resuspended first with serum-free media containing BSA prior being added to culture.
Nanostring nCounter. Nanostring nCounter platform (NanoString Technologies) is used to measure the number of RNA transcripts in RNA samples (FIG. 16I, FIG. 18D). A codeset containing 312 signature genes of Th17 cell differentiation and function as well as 4 additional house-keeping genes were custom-made (Yosef et al., 2013) and used in these experiments. Experimental procedures as detailed by the manufacturer is strictly followed.

Th17 cells [2] = test: Flow cytometry and intracellular cytokine staining of T cells; type: cell-based, mouse; settings: WT Th17 cells differentiated with TGF-β1+IL-6 and expanded using IL-23 with fatty acid
Description: WT, CD5L−/− and Rorγt−/− Th17 cells were differentiated with TGF-1+IL-6 for 96h. […] Three independent experiments were performed. […] (FIG. 18E) Naïve WT T cells were activated without polarizing cytokines (Th0) and infected with retrovirus expressing Rorγt in the presence of control-RV or CD5L-RV with or without FF-MAS (5 uM) as a source of Rorγt ligand. Each dot represents an independent infection. (FIG. 18F) WT or CD5L−/− naïve cells were differentiated with TGF-β1+IL-6. At 48h, cells were replated in fresh media with either control or FF-MAS (5 uM) as a source of Rorγt ligand. Cells were harvested for FACS analysis 72h later.
Flow cytometry and intracellular cytokine staining. Sorted naïve T cells were stimulated with phorbol 12-myristate 13-acetate (PMA) (50 ng/ml, Sigma-aldrich), ionomycin (1 μg/ml, Sigma-aldrich) and a protein transport inhibitor containing monensin (Golgistop) (BD Biosciences) for 4 h before detection by staining with antibodies.

[3] = Th17 cells differentiated with TGF-β1+IL-6

## CC(CO)CCC[C@@H](C)[C@H]1CC[C@H]2[C@@H]3[C@@H](O)C=C4C[C@@H](O)CC[C@]4(C)[C@H]3CC[C@]12C (stereo partly drawn) [7β, 27-dihydroxycholesterol]
Rorγt
  Il17 reporter transcription (luciferase): rescued the CD5L-driven suppression of Il17 reporter transcription

## CCCCCCCCCCCCCCCC(=O)O [SFA, palmitic acid]
Th17 cells [1]; CD5L−/− Th17 cells (TGF-β1+IL-6), fatty acid 25 uM added at 48h, analyzed at 96h
  expression of cyp51 and sc4mol mRNA: modest effect
Th17 cells [1]; [3]
  Il22 expression (qPCR): increased
  effector molecule expression of the pathogenicity signature (Il10, Il23r, Ccl5, Csf2, Lag3; qPCR): reciprocally regulated
WT Th17 cells
  ATF2 expression (Nanostring), normalized to WT: 1.18
  Abcg2 expression (Nanostring), normalized to WT: 0.77
  Acvr2a expression (Nanostring), normalized to WT: 0.66
  Ahr expression (Nanostring), normalized to WT: 0.83
  Arl5a expression (Nanostring), normalized to WT: 0.93
  Atf4 expression (Nanostring), normalized to WT: 1.11
  BC021614 expression (Nanostring), normalized to WT: 0.96
  Bcl2l11 expression (Nanostring), normalized to WT: 0.82
  Bcl3 expression (Nanostring), normalized to WT: 0.85
  Bcl11b expression (Nanostring), normalized to WT: 0.82
  Bhlhe40 expression (Nanostring), normalized to WT: 1.22
  Casp3 expression (Nanostring), normalized to WT: 1.21
  Casp4 expression (Nanostring), normalized to WT: 0.95
  Ccl1 expression (Nanostring), normalized to WT: 0.58
  Ccl20 expression (Nanostring), normalized to WT: 0.31
  Ccr4 expression (Nanostring), normalized to WT: 0.61
  Ccr8 expression (Nanostring), normalized to WT: 0.74
  Cd9 expression (Nanostring), normalized to WT: 0.84
  Cd70 expression (Nanostring), normalized to WT: 0.89
  Cd83 expression (Nanostring), normalized to WT: 1.23
  Cd86 expression (Nanostring), normalized to WT: 0.99
  Cd247 expression (Nanostring), normalized to WT: 0.81
  Clcf1 expression (Nanostring), normalized to WT: 0.74
  Csf2 expression (Nanostring), normalized to WT: 0.97
  Ctla4 expression (Nanostring), normalized to WT: 0.81
  Cxcl10 expression (Nanostring), normalized to WT: 3.83
  Cxcr3 expression (Nanostring), normalized to WT: 0.48
  Cxcr4 expression (Nanostring), normalized to WT: 1.00
  Cxcr5 expression (Nanostring), normalized to WT: 1.17
  EBF1 expression (Nanostring), normalized to WT: 0.51
  Egr2 expression (Nanostring), normalized to WT: 1.53
  Elk3 expression (Nanostring), normalized to WT: 0.58
  Ercc5 expression (Nanostring), normalized to WT: 0.90
  Etv6 expression (Nanostring), normalized to WT: 0.94
  Faim3 expression (Nanostring), normalized to WT: 0.61
  Fli1 expression (Nanostring), normalized to WT: 0.84
  Flna expression (Nanostring), normalized to WT: 0.65
  Foxo1 expression (Nanostring), normalized to WT: 0.79
  Foxp1 expression (Nanostring), normalized to WT: 0.77
  Foxp3 expression (Nanostring), normalized to WT: 0.71
  Frmd4b expression (Nanostring), normalized to WT: 1.05
  Fxd7 expression (Nanostring), normalized to WT: 1.07
  Gap43 expression (Nanostring), normalized to WT: 1.30
  Gem expression (Nanostring), normalized to WT: 1.00
  Gimap5 expression (Nanostring), normalized to WT: 1.05
  Gja1 expression (Nanostring), normalized to WT: 0.94
  Gmfg expression (Nanostring), normalized to WT: 0.62
  Grn expression (Nanostring), normalized to WT: 0.78
  Gusb expression (Nanostring), normalized to WT: 1.02
  Hip1r expression (Nanostring), normalized to WT: 0.70
  IL-33 expression (Nanostring), normalized to WT: 1.33
  Ifih1 expression (Nanostring), normalized to WT: 0.87
  Ifng expression (Nanostring), normalized to WT: 0.55
  Ikzf3 expression (Nanostring), normalized to WT: 0.82
  Il1r1 expression (Nanostring), normalized to WT: 0.61
  Il2ra expression (Nanostring), normalized to WT: 0.71
  Il3 expression (Nanostring), normalized to WT: 2.11
  Il4ra expression (Nanostring), normalized to WT: 0.75
  Il6st expression (Nanostring), normalized to WT: 0.87
  Il7r expression (Nanostring), normalized to WT: 0.85
  Il10 expression (Nanostring), normalized to WT: 0.12
  Il10ra expression (Nanostring), normalized to WT: 0.71
  Il12rb1 expression (Nanostring), normalized to WT: 0.39
  Il12rb2 expression (Nanostring), normalized to WT: 0.88
  Il17a expression (Nanostring), normalized to WT: 0.96
  Il17f expression (Nanostring), normalized to WT: 0.90
  Il21 expression (Nanostring), normalized to WT: 1.64
  Il23r expression (Nanostring), normalized to WT: 1.12
  Il27ra expression (Nanostring), normalized to WT: 0.70
  Inhba expression (Nanostring), normalized to WT: 0.60
  Irf4 expression (Nanostring), normalized to WT: 0.68
  Irf7 expression (Nanostring), normalized to WT: 0.54
  Irf8 expression (Nanostring), normalized to WT: 0.99
  Itga3 expression (Nanostring), normalized to WT: 0.50
  Jak3 expression (Nanostring), normalized to WT: 0.91
  Jun expression (Nanostring), normalized to WT: 1.11
  Kat2b expression (Nanostring), normalized to WT: 0.69
  Klf9 expression (Nanostring), normalized to WT: 0.68
  Klf10 expression (Nanostring), normalized to WT: 0.91
  Klrd1 expression (Nanostring), normalized to WT: 0.92
  Lad1 expression (Nanostring), normalized to WT: 0.91
  Lgals3bp expression (Nanostring), normalized to WT: 0.58
  Litaf expression (Nanostring), normalized to WT: 1.48
  Lpxn expression (Nanostring), normalized to WT: 0.85
  Maf expression (Nanostring), normalized to WT: 0.79
  Maff expression (Nanostring), normalized to WT: 0.99
  Map3k5 expression (Nanostring), normalized to WT: 0.80
  Mbnl3 expression (Nanostring), normalized to WT: 0.71
  Mina expression (Nanostring), normalized to WT: 0.72
  Mt1 expression (Nanostring), normalized to WT: 1.56
  Mt2 expression (Nanostring), normalized to WT: 1.33
  Nfkbie expression (Nanostring), normalized to WT: 0.69
  Nkg7 expression (Nanostring), normalized to WT: 0.62
  Notch2 expression (Nanostring), normalized to WT: 0.78
  Oas2 expression (Nanostring), normalized to WT: 1.28
  Peli2 expression (Nanostring), normalized to WT: 0.88
  Plac8 expression (Nanostring), normalized to WT: 1.04
  Plagl1 expression (Nanostring), normalized to WT: 2.19
  Pmepa1 expression (Nanostring), normalized to WT: 0.74
  Pou2af1 expression (Nanostring), normalized to WT: 1.30
  Prkd3 expression (Nanostring), normalized to WT: 0.73
  Pstpip1 expression (Nanostring), normalized to WT: 1.16
  Rab33a expression (Nanostring), normalized to WT: 1.23
  Rasgrp1 expression (Nanostring), normalized to WT: 0.75
  Rel expression (Nanostring), normalized to WT: 1.20
  Rela expression (Nanostring), normalized to WT: 0.70
  Rfk expression (Nanostring), normalized to WT: 0.79
  Rorc expression (Nanostring), normalized to WT: 1.25
  Sap30 expression (Nanostring), normalized to WT: 1.23
  Sema7a expression (Nanostring), normalized to WT: 1.44
  Serpinb1a expression (Nanostring), normalized to WT: 0.56
  Ski expression (Nanostring), normalized to WT: 0.88
  Slc6a6 expression (Nanostring), normalized to WT: 0.79
  Smad3 expression (Nanostring), normalized to WT: 0.81
  Socs3 expression (Nanostring), normalized to WT: 0.78
  Spp1 expression (Nanostring), normalized to WT: 1.10
  Spry1 expression (Nanostring), normalized to WT: 1.57
  Stat4 expression (Nanostring), normalized to WT: 0.77
  Stat5b expression (Nanostring), normalized to WT: 0.82
  Stat6 expression (Nanostring), normalized to WT: 0.73
  Sult2b1 expression (Nanostring), normalized to WT: 0.38
  Tal2 expression (Nanostring), normalized to WT: 1.15
  Tcf4 expression (Nanostring), normalized to WT: 0.72
  Tgfb1 expression (Nanostring), normalized to WT: 0.83
  Tgfb3 expression (Nanostring), normalized to WT: 0.88
  Tgfbr3 expression (Nanostring), normalized to WT: 0.58
  Tgm2 expression (Nanostring), normalized to WT: 0.78
  Tmem229b expression (Nanostring), normalized to WT: 0.69
  Tnfrsf4 expression (Nanostring), normalized to WT: 1.28
  Tnip2 expression (Nanostring), normalized to WT: 0.90
  Trat1 expression (Nanostring), normalized to WT: 0.61
  Trim25 expression (Nanostring), normalized to WT: 0.89
  Trps1 expression (Nanostring), normalized to WT: 0.84
  Tsc22d3 expression (Nanostring), normalized to WT: 1.06
  Ubiad1 expression (Nanostring), normalized to WT: 0.94
  Vav3 expression (Nanostring), normalized to WT: 0.56
  Xrcc5 expression (Nanostring), normalized to WT: 0.93
  nrp1 expression (Nanostring), normalized to WT: 0.74
  pou2f1 expression (Nanostring), normalized to WT: 1.34
Th17 cells [2]
  IL-17 and IL-23R expression: only slightly increased
